The values below come from US9023789B2, “Amylin analogs and pharmaceutical compositions thereof” (Novo Nordisk A/S, priority 2012, dated 2015).

The structures appear in SMILES notation. Numbered stars: 1 amine (or outer) side, 2 acyl side, 3 side chain; on linkers, the order of the positions; unused ones are H or OH. Bridge positions count the residues as written; N and C are the ends. Side chains are listed from the residue outwards. Peptide text beside a SMILES is read from it. * marks the point of attachment. C20 diacid = O=C(O)CCCCCCCCCCCCCCCCCCC(=O)*; γGlu = O=C(O)[C@H](CCC(=O)[*:2])N[*:1]; AEEA = NCCOCCOCC(=O)O

The target in the assay is T1, human amylin 3(a) receptor (human calcitonin receptor + RAMP-3) in BHK570 cells (Homo sapiens, UniProt O60896+P30988).
T1 construct: expressed in transfected cells
Kind of assay: ASSAY (II)a functional assay, human amylin receptor (CRE luciferase). The class given is cell-based. In a few lines: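 Receptor activation is measured as cAMP-driven CRE-luciferase expression in BHK cells expressing the calcitonin receptor, with RAMP-3 co-expressed to form the amylin 3(a) receptor. Cells are exposed to compound for 3 hours at 37° C, and luciferase is then quantified by luminescence.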

[1] abbreviates: hCTR funct. EC50 divided by hAmylin-R funct. EC50.
The mark [2] stands for this setting: hCTR funct. EC50 over hAmylin-R funct. EC50.
Setting [3] is: human functional selectivity: hCTR funct. EC50 / hAmylin-R funct. EC50.

T1 sequence (O60896 24-148): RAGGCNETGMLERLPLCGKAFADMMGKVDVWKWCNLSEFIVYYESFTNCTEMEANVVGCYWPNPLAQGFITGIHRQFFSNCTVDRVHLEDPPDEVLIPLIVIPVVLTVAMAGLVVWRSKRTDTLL
T1 sequence (P30988 25-474): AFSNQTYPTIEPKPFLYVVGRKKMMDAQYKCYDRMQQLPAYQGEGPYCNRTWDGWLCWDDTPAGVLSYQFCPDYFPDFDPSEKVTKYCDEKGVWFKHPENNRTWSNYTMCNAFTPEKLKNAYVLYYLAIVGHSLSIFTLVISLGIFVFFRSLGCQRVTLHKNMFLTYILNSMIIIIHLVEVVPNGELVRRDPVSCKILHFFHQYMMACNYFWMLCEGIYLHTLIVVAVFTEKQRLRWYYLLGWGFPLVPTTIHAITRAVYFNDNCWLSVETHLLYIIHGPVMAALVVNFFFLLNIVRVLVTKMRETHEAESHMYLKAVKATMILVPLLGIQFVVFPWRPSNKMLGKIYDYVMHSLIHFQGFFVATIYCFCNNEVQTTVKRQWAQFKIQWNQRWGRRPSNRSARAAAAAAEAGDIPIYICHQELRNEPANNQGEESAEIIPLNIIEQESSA

Consider `CC[C@H](C)[C@H](NC(=O)[C@H](C)NC(=O)CNC(=O)[C@H](Cc1ccccc1)NC(=O)[C@H](CC(N)=O)NC(=O)[C@@H]1CCCN1C(=O)[C@H](CO)NC(=O)[C@H](CO)NC(=O)[C@H](Cc1c[nH]cn1)NC(=O)[C@H](CCCNC(=N)N)NC(=O)[C@H](CC(C)C)NC(=O)[C@H](Cc1ccccc1)NC(=O)[C@H](Cc1c[nH]cn1)NC(=O)[C@H](C)NC(=O)[C@H](CC(C)C)NC(=O)[C@H](CCCNC(=N)N)NC(=O)[C@H](CCC(N)=O)NC(=O)[C@@H](NC(=O)[C@H](C)NC(=O)[C@@H]1CSSC[C@H](NC(=O)[C@@H](N)CCCCNC(=O)COCCOCCNC(=O)CC[C@H](NC(=O)CCCCCCCCCCCCCCCCCCC(=O)O)C(=O)O)C(=O)N[C@@H](CC(N)=O)C(=O)N[C@@H]([C@@H](C)O)C(=O)N[C@@H](C)C(=O)N[C@@H]([C@@H](C)O)C(=O)N1)[C@@H](C)O)C(=O)N1CCC[C@H]1C(=O)N[C@@H](CO)C(=O)N[C@@H](CO)C(=O)N[C@H](C(=O)N[C@@H](CC(N)=O)C(=O)N[C@H](C(=O)NCC(=O)N1CCC[C@H]1C(=O)N[C@@H](CC(N)=O)C(=O)N[C@H](C(=O)N[C@@H](Cc1ccc(O)cc1)C(N)=O)[C@@H](C)O)C(C)C)[C@@H](C)O` [Example 68] (H-K([AEEA-γGlu-C20 diacid])CNTATCATQRLAHFLRHSSPNFGAIPSSTNVGPNTY-NH2; disulfide 2-7), for which the “Ratio hCT/hAmylin funct.” value is, setting by setting: under setting [1], 17.4; under setting [2], 17.4; under setting [3], 17.4.

In the case of `CC[C@H](C)[C@H](NC(=O)[C@H](C)NC(=O)CNC(=O)[C@H](Cc1ccccc1)NC(=O)[C@H](CC(N)=O)NC(=O)[C@@H]1CCCN1C(=O)[C@H](CO)NC(=O)[C@H](CO)NC(=O)[C@H](Cc1c[nH]cn1)NC(=O)[C@H](CCCNC(=N)N)NC(=O)[C@H](CC(C)C)NC(=O)[C@H](Cc1ccccc1)NC(=O)[C@H](CCC(=O)O)NC(=O)[C@H](C)NC(=O)[C@H](CC(C)C)NC(=O)[C@H](CCCNC(=N)N)NC(=O)[C@H](CCC(N)=O)NC(=O)[C@@H](NC(=O)[C@H](C)NC(=O)[C@@H]1CSSC[C@H](NC(=O)[C@@H](N)CCCCNC(=O)CC[C@H](NC(=O)CCCCCCCCCCCCCCCCCCC(=O)O)C(=O)O)C(=O)N[C@@H](CC(N)=O)C(=O)N[C@@H]([C@@H](C)O)C(=O)N[C@@H](C)C(=O)N[C@@H]([C@@H](C)O)C(=O)N1)[C@@H](C)O)C(=O)N1CCC[C@H]1C(=O)N[C@@H](CO)C(=O)N[C@@H](CO)C(=O)N[C@H](C(=O)N[C@@H](CC(N)=O)C(=O)N[C@H](C(=O)NCC(=O)N[C@@H](CO)C(=O)N[C@@H](CC(N)=O)C(=O)N[C@H](C(=O)N1CCC[C@H]1C(N)=O)[C@@H](C)O)C(C)C)[C@@H](C)O` [Example 12] (H-K([γGlu-C20 diacid])CNTATCATQRLAEFLRHSSPNFGAIPSSTNVGSNTP-NH2; disulfide 2-7 (inferred); N-terminus assumed), the “Ratio hCT/hAmylin funct.” value by setting is: (hCTR funct. EC50 / hAmylin-R funct. EC50) 1.8; under setting [1], 1.8; under setting [2], 1.8; under setting [3], 1.8.
